Test results: patent publication US20110165195A1 (priority 2007, published 2011)

How the values were obtained:
Caco-2 cell line = conditions: cited from earlier work
[1] = tested on: rat intestinal tract tissue; conditions: in vivo; cited from earlier work
in vivo [2] = conditions: male, SD, rat, sc, 10 ug/kg
in vivo [3] = conditions: male, rat
in vivo [4] = conditions: male, SD, rat
in vivo [5] = conditions: male, SD, rat; remark: listed apart in the source
in vivo [6] = conditions: male, SD, rat, iv, 10 ug/kg
in vivo [7] = conditions: male, SD, rat, iv, 10 ug/kg; remark: listed apart in the source
in vivo [8] = conditions: male, SD, rat; remark: listed apart in the source
[9] = rat, in vivo

SMILES: CCCCCCCCCC(=O)O [capric acid]
- cytotoxicity and tissue damage (Caco-2 cell line): exhibits cytotoxicity and causes tissue damage
- cytotoxicity and tissue damage [1]: exhibits cytotoxicity and causes tissue damage

SMILES: CC[C@H](C)[C@H](NC(=O)[C@H](CCC(=O)O)NC(=O)[C@H](CO)NC(=O)[C@@H](NC(=O)[C@@H](N)CO)C(C)C)C(=O)N[C@@H](CCC(N)=O)C(=O)N[C@@H](CC(C)C)C(=O)N[C@@H](CCSC)C(=O)N[C@@H](Cc1cnc[nH]1)C(=O)N[C@@H](CC(N)=O)C(=O)N[C@@H](CC(C)C)C(=O)NCC(=O)N[C@@H](CCCCN)C(=O)N[C@@H](Cc1cnc[nH]1)C(=O)N[C@@H](CC(C)C)C(=O)N[C@@H](CC(N)=O)C(=O)N[C@@H](CO)C(=O)N[C@@H](CCSC)C(=O)N[C@@H](CCC(=O)O)C(=O)N[C@@H](CCCN=C(N)N)C(=O)N[C@H](C(=O)N[C@@H](CCC(=O)O)C(=O)N[C@@H](Cc1c[nH]c2ccccc12)C(=O)N[C@@H](CC(C)C)C(=O)N[C@@H](CCCN=C(N)N)C(=O)N[C@@H](CCCCN)C(=O)N[C@@H](CCCCN)C(=O)N[C@@H](CC(C)C)C(=O)N[C@@H](CCC(N)=O)C(=O)N[C@@H](CC(=O)O)C(=O)N[C@H](C(=O)N[C@@H](Cc1cnc[nH]1)C(=O)N[C@@H](CC(N)=O)C(=O)N[C@@H](Cc1ccccc1)C(=O)O)C(C)C)C(C)C [hPTH(1-34)]
- AUC (in vivo [2]): 0.827 ng·h/mL
- Cmax (in vivo [2]): 1.07 ± 0.41 ng/mL
- bioavailability (in vivo [3]; Wistar, iv): 0.4 ± 0.4%
- AUC (in vivo [3]; Wister): 0.538 ng·h/mL
- Cmax (in vivo [3]; Wister): 0.93 ± 0.8 ng/mL
- bioavailability (in vivo [4]): 0.3 ± 0.1%
- AUC (in vivo [4]; inhaled or intranasal): 0.732 ng·h/mL
- Cmax (in vivo [4]; inhaled or intranasal): 0.67 ± 0.16 ng/mL
- AUC (in vivo [5]): 25.6 ng·h/mL
- Cmax (in vivo [5]): 27.8 ± 15.9 ng/mL
- bioavailability (in vivo [5]; iv): 14.6 ± 10.7%
- AUC (in vivo [6]): 3.48 ng·h/mL
- Cmax (in vivo [6]): 31 ± 1.3 ng/mL

SMILES: CCCCCCCC(=O)OC[C@H](NC(=O)[C@H](CO)NC(=O)CN)C(=O)N[C@@H](Cc1ccccc1)C(=O)N[C@@H](CC(C)C)C(=O)N[C@@H](CO)C(=O)N1CCC[C@H]1C(=O)N[C@@H](CCC(=O)O)C(=O)N[C@@H](Cc1cnc[nH]1)C(=O)N[C@@H](CCC(N)=O)C(=O)N[C@@H](CCCNC(=N)N)C(=O)N[C@H](C(=O)N[C@@H](CCC(N)=O)C(=O)N[C@@H](CCC(N)=O)C(=O)N[C@@H](CCCNC(=N)N)C(=O)N[C@@H](CCCCN)C(=O)N[C@@H](CCC(=O)O)C(=O)N[C@@H](CO)C(=O)N[C@@H](CCCCN)C(=O)N[C@@H](CCCCN)C(=O)N1CCC[C@H]1C(=O)N1CCC[C@H]1C(=O)N[C@@H](C)C(=O)N[C@@H](CCCCN)C(=O)N[C@@H](CC(C)C)C(=O)N[C@@H](CCC(N)=O)C(=O)N1CCC[C@H]1C(=O)N[C@@H](CCCNC(=N)N)C(=O)O)C(C)C [human ghrelin]
- AUC (in vivo [7]): 3.43 ng·h/mL
- C0 (in vivo [7]): 40.7 ng/mL
- AUC (in vivo [8]): 0.533 ng·h/mL
- Cmax (in vivo [8]): 2.25 ± 2 ng/mL
- bioavailability (in vivo [8]): 1.6 ± 1.4%

SMILES: CC[C@H](C)[C@H](NC(=O)[C@@H]1CCCN1C(=O)[C@@H](NC(=O)[C@@H](N)Cc1ccccc1)C(C)C)C(=O)N[C@@H](Cc1ccccc1)C(=O)N[C@H](C(=O)N[C@@H](Cc1ccc(O)cc1)C(=O)NCC(=O)N[C@@H](CCC(=O)O)C(=O)N[C@@H](CC(C)C)C(=O)N[C@@H](CCC(N)=O)C(=O)N[C@@H](CCCNC(=N)N)C(=O)N[C@@H](CCSC)C(=O)N[C@@H](CCC(N)=O)C(=O)N[C@@H](CCC(=O)O)C(=O)N[C@@H](CCCCN)C(=O)N[C@@H](CCC(=O)O)C(=O)N[C@@H](CCCNC(=N)N)C(=O)N[C@@H](CC(N)=O)C(=O)N[C@@H](CCCCN)C(=O)NCC(=O)N[C@@H](CCC(N)=O)C(=O)O)[C@@H](C)O [human motilin]
- BA of human motilin [9]: 1.1 ± 0.7%
